Key:
[1] = system: Ovarian cancer cells OVCAR3; test: Inhibitory activity against ovarian cancer cells (OVCAR3), CellTiter-Glo cell viability; assay type: cell-based; details: for IC50: Homo sapiens, OVCAR-3, 120 h, OVCAR3 cells, 2500 cells/well, 5 days with compound, highest concentration 10 µM, Celltiter Glo; for inhibitory activity against OVCAR3 tumor cells compared with Janssen-01: comparison in words with the disclosed compound Janssen-01
Procedure: Test Example 1. Assay for Inhibitory Activity of Compounds of Present Disclosure Against Ovarian Cancer Cells (OVCAR3)
Ovarian cancer cells OVCAR3 (source: Nanjing Cobioer Biosciences Co., Ltd.) were cultured in an RPMI 1640 culture medium supplemented with 10% FBS in a cell incubator at 37 °C with 5% CO2. On day one, the cells were plated in a 96-well plate at a cell concentration of 2500 cells/well and cultured overnight in an incubator. On day two, the cells were treated with compounds. The highest compound concentration was 10 µM and was diluted 3-fold to obtain 9 concentrations, and the final concentration of DMSO was 0.1%. After the cells were cultured in the incubator for another 5 days, the cell viability was measured using a Celltiter Glo assay kit (Promega) by a method consistent with that provided by the kit. Data were processed using GraphPad Prism 8, and IC50 was calculated. [formula] X: the logarithm of the compound concentration; Y: % inhibition; Bottom: bottom; Top: top; HillSlope: Hill slope. Table 2. The IC50 (nM) of the compounds of the present disclosure against OVCAR3

CDK7/Cyclin H/MAT1 = CDK7/Cyclin H/MAT1 (Homo sapiens, UniProt P50613); test: ADP-Glo kinase assay, CDK7; assay type: biochemical; details: 80 nM CDK7/Cyclin H/MAT1, 70 µM ATP (Km), 0.2 mg/mL MBP, 60 min; read-out: inhibitory activity (IC50, nM) CDK7
Procedure: (§1) An ADP-Glo kinase assay was used for testing the activity of CDKs. The compounds were diluted in 384-well plates using Echo. The starting concentration was 10 µM and was diluted 3-fold to obtain 10 concentration points, and each concentration was tested in duplicate. The final concentration of DMSO in the assay system was 1%. CDK solutions (final concentrations: 16.5 nM CDK1/CyclinB, 1 nM CDK2/CyclinE1, 16.3 nM CDK4/CyclinD1, 15.7 nM CDK6/CyclinD3, 80 nM CDK7/Cyclin H/MAT1, and 15.3 nM CDK9/Cyclin T1) prepared with assay buffer were added at 2.5 µL, and the enzymes and compounds were pre-incubated at room temperature for 10 min. […] After thorough mixing, the plates were incubated at room temperature (for 120 min for CDK1/4/9 and for 60 min for CDK2/6/7). 4 µL of the ADP-Glo reagent was added, and the plates were incubated at room temperature for 40 min. 8 µL of the kinase assay reagent was added, and the plates were incubated at room temperature for 40 min. Readings were taken using an Envision multimode microplate reader. Data were processed using GraphPad Prism 8, and IC50 was calculated. [formula] X: the logarithm of the compound concentration; Y: % inhibition; Bottom: bottom; Top: top; HillSlope: Hill slope. Table 3. The inhibitory activity (IC50, nM) of the compounds of the present disclosure against CDKs

CDK1/CyclinB = CDK1/CyclinB (Homo sapiens, UniProt P06493); test: ADP-Glo kinase assay, CDK1; assay type: biochemical; details: 16.5 nM CDK1/CyclinB, 20 µM ATP (Km), 0.1 mg/mL histone H1, 120 min; read-out: inhibitory activity (IC50, nM) CDK1
Procedure: as §1

CDK6/CyclinD3 = CDK6/CyclinD3 (Homo sapiens, UniProt Q00534); test: ADP-Glo kinase assay, CDK6; assay type: biochemical; details: 15.7 nM CDK6/CyclinD3, 200 µM ATP (Km), 0.1 mg/mL histone H1, 60 min; read-out: inhibitory activity (IC50, nM) CDK 6
Procedure: as §1

CDK9/Cyclin T1 = CDK9/Cyclin T1 (Homo sapiens, UniProt P50750); test: ADP-Glo kinase assay, CDK9; assay type: biochemical; details: 15.3 nM CDK9/Cyclin T1, 60 µM ATP (Km), 0.2 mg/mL PDKtide, 120 min; read-out: inhibitory activity (IC50, nM) CDK9
Procedure: as §1

CDK4/CyclinD1 = CDK4/CyclinD1 (Homo sapiens, UniProt P11802); test: ADP-Glo kinase assay, CDK4; assay type: biochemical; details: 16.3 nM CDK4/CyclinD1, 200 µM ATP (Km), 0.2 mg/mL DYRKtide, 120 min; read-out: inhibitory activity (IC50, nM) CDK4
Procedure: as §1

CDK2/CyclinE1 = CDK2/CyclinE1 (Homo sapiens, UniProt P24941); test: ADP-Glo kinase assay, CDK2; assay type: biochemical; details: 1 nM CDK2/CyclinE1, 15 µM ATP (Km), 0.1 mg/mL histone H1, 60 min; read-out: inhibitory activity (IC50, nM) CDK2
Procedure: as §1

CDK6/CyclinD3, sequence (Q00534 whole entry, species assumed): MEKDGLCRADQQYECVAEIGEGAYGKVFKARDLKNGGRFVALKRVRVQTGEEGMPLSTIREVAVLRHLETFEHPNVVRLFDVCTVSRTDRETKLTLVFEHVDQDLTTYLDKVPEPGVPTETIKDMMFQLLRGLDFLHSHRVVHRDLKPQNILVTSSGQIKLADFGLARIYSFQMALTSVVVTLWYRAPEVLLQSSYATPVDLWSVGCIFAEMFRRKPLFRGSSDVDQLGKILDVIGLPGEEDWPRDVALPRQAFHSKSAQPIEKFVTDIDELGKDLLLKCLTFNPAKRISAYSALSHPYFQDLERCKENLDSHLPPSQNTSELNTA
CDK6/CyclinD3, sequence (P30281 whole entry partner, species assumed): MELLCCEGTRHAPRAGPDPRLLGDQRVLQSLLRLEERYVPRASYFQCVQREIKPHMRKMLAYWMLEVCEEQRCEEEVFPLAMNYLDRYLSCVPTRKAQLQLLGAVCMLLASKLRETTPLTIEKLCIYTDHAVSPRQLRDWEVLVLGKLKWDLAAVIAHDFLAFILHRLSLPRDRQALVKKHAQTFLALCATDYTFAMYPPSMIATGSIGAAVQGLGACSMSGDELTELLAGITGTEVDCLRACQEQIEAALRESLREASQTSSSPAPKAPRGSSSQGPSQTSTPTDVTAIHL
CDK9/Cyclin T1, sequence (P50750 whole entry, species assumed): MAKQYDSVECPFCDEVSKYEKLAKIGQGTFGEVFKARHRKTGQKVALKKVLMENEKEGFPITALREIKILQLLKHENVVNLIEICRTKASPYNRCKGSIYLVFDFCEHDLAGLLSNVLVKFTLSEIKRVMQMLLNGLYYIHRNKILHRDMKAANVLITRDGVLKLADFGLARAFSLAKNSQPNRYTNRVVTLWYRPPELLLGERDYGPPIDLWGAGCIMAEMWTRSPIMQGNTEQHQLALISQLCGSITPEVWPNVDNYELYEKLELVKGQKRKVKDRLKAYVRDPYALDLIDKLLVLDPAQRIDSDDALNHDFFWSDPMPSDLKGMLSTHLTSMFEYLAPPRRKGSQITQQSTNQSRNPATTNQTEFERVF
CDK9/Cyclin T1, sequence (O60563 whole entry partner, species assumed): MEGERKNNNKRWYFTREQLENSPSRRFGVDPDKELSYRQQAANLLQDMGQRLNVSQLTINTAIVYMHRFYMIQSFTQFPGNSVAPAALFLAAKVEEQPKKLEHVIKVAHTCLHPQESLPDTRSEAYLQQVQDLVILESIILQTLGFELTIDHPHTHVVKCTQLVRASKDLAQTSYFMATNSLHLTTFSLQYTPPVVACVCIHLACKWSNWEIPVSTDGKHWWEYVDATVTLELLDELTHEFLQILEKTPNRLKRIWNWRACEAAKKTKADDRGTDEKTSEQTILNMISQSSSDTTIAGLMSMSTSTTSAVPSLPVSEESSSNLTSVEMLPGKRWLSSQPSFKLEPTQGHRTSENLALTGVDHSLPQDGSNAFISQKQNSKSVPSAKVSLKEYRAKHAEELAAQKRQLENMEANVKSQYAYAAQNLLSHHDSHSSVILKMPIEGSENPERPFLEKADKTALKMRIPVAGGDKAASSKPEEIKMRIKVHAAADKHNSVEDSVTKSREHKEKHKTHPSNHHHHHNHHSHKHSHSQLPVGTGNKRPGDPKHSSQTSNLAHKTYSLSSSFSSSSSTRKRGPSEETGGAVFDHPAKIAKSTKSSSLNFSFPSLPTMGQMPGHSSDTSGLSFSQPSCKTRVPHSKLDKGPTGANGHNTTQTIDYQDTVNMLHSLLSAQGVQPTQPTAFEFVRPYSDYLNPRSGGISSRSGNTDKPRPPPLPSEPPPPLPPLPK
CDK4/CyclinD1, sequence (P11802 whole entry, species assumed): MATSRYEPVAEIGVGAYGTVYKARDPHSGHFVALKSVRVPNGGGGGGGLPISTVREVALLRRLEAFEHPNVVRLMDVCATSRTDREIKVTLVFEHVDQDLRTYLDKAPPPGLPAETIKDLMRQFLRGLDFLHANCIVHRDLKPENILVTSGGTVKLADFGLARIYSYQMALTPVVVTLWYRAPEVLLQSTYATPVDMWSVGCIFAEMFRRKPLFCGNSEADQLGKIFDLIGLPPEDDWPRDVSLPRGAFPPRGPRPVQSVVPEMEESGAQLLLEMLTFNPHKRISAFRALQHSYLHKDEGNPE
CDK4/CyclinD1, sequence (P24385 whole entry partner, species assumed): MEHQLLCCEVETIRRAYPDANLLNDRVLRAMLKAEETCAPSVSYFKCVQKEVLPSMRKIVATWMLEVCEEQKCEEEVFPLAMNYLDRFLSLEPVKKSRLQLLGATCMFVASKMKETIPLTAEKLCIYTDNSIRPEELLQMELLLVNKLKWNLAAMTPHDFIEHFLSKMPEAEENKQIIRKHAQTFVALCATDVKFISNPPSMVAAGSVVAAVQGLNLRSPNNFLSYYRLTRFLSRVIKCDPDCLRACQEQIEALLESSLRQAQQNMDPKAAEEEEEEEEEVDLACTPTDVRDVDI
CDK7/Cyclin H/MAT1, sequence (P50613 whole entry, species assumed): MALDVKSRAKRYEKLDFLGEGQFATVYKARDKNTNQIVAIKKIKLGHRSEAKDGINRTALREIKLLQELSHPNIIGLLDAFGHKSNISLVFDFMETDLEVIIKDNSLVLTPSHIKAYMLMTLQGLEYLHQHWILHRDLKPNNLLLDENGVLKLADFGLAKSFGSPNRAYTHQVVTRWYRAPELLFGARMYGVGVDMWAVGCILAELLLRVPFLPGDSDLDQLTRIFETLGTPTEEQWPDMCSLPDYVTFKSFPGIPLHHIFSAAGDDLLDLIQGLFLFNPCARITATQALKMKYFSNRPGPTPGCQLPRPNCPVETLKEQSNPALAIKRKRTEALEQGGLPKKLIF
CDK7/Cyclin H/MAT1, sequence (P51946 whole entry partner, species assumed): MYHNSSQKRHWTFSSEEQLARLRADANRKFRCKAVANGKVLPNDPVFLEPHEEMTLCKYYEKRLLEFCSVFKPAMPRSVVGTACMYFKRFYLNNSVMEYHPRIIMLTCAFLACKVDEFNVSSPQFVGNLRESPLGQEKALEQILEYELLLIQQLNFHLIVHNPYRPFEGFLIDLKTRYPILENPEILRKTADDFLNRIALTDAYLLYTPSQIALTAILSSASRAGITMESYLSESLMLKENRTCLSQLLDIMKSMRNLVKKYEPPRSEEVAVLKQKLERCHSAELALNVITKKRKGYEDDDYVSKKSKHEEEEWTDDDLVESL
CDK7/Cyclin H/MAT1, sequence (P51948 whole entry partner, species assumed): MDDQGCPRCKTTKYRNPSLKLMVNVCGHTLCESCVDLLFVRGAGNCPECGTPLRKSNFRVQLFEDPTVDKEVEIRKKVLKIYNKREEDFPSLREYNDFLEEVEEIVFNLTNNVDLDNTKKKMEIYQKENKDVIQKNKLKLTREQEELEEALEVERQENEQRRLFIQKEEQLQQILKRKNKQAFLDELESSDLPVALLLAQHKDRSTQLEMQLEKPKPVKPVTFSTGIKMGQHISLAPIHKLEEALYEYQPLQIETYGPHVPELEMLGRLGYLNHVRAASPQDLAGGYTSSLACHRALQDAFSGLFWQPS
CDK1/CyclinB, sequence (P06493 whole entry, species assumed): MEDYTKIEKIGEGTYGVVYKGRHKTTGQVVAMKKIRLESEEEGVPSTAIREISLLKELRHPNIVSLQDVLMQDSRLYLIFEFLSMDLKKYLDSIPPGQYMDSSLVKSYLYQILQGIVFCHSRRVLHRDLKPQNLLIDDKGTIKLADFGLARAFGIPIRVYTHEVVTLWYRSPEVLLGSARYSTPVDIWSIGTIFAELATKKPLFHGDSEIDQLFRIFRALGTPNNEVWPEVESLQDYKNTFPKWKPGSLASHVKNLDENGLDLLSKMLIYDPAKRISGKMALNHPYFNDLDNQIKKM
CDK1/CyclinB, sequence (P14635 whole entry partner, species assumed): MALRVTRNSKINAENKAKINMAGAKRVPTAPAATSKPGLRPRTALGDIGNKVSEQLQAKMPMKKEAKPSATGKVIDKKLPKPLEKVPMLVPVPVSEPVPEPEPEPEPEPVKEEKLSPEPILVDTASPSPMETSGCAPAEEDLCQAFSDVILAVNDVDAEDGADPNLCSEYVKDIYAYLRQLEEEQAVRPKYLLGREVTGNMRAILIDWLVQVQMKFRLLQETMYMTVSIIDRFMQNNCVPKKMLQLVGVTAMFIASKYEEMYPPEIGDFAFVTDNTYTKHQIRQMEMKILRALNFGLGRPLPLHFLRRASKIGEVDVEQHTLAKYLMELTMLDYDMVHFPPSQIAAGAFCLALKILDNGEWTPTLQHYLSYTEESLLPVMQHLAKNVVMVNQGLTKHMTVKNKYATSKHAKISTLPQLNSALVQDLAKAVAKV

IC50 [1] | Structure (SMILES) | inhibitory activity against OVCAR3 tumor cells compared with Janssen-01 [1] | also measured
190 nM | C[C@@H]1Cc2cnc(N[C@H](C)c3nc(CO)cs3)nc2CN1C(=O)N[C@H](CN(C)C)c1ccccc1 [Compound 11-2, (R)-N-((S)-2-(Dimethylamino)-1-phenylethyl)-2-(((R)-1-(4-(hydroxymethyl)thiazol-2-yl)ethyl)amino)-6-methyl-5,8-dihydropyrido[3,4-d]pyrimidine-7(6H)-carboxamide] |  | 
66 nM | Cc1csc([C@@H](C)Nc2ncc3c(n2)CN(C(=O)N[C@H](CN(C)C)c2ccccc2)[C@H](C)C3)n1 [Compound 2-2, (R)-N-((S)-2-(Dimethylamino)-1-phenylethyl)-6-methyl-2-(((R)-1-(4-methylthiazol-2-yl)ethyl)amino)-5,8-dihydropyrido[3,4-d]pyrimidine-7(6H)-carboxamide] |  | 
< 1.5 nM | Cc1csc([C@H](C)Nc2ncc3c(n2)CN(C(=O)N[C@H](CN(C)C)c2ccccc2)[C@H](C)C3)n1 [Compound 2-1, (R)-N-((S)-2-(Dimethylamino)-1-phenylethyl)-6-methyl-2-(((S)-1-(4-methylthiazol-2-yl)ethyl)amino)-5,8-dihydropyrido[3,4-d]pyrimidine-7(6H)-carboxamide] | significantly better than that of the disclosed compound Janssen-01 | IC50 (CDK7/Cyclin H/MAT1): 0.96 nM; IC50 (CDK1/CyclinB): > 1000 nM; IC50 (CDK6/CyclinD3): > 1000 nM; IC50 (CDK9/Cyclin T1): > 1000 nM; IC50 (CDK4/CyclinD1): > 1000 nM; IC50 (CDK2/CyclinE1): 711 nM
< 1.5 nM | [2H]C([2H])([2H])N(C[C@@H](NC(=O)N1Cc2nc(N[C@@H](C)c3nc(C)cs3)ncc2C[C@H]1C)c1ccccc1)C([2H])([2H])[2H] [Compound 3-1, (R)-N-((S)-2-(Bis(methyl-d3)amino)-1-phenylethyl)-6-methyl-2-(((S)-1-(4-methylthiazo 1-2-yl)ethyl)amino)-5,8-dihydropyrido[3,4-d]pyrimidine-7(6H)-carboxamide] | significantly better than that of the disclosed compound Janssen-01 | 
101 nM | [2H]C([2H])([2H])N(C[C@@H](NC(=O)N1Cc2nc(N[C@H](C)c3nc(C)cs3)ncc2C[C@H]1C)c1ccccc1)C([2H])([2H])[2H] [Compound 3-2, (R)-N-((S)-2-(Bis(methyl-d3)amino)-1-phenylethyl)-6-methyl-2-(((R)-1-(4-methylthiazo 1-2-yl)ethyl)amino)-5,8-dihydropyrido[3,4-d]pyrimidine-7(6H)-carboxamide] |  | 
1.89 nM | C[C@H](Nc1ncc2c(n1)CN(C(=O)N[C@H](CN(C)C)c1ccccc1)[C@H](C)C2)c1nc(CO)cs1 [Compound 11-1, (R)-N-((S)-2-(Dimethylamino)-1-phenylethyl)-2-(((S)-1-(4-(hydroxymethyl)thiazol-2-yl)ethyl)amino)-6-methyl-5,8-dihydropyrido[3,4-d]pyrimidine-7(6H)-carboxamide] | significantly better than that of the disclosed compound Janssen-01 | 

More lines, now with the values behind:

Structure (SMILES) | IC50 [1] | inhibitory activity against OVCAR3 tumor cells compared with Janssen-01 [1] | also measured
Cc1csc(C(C)Nc2ncc3c(n2)CN(C(=O)N[C@H](CN(C)C)c2ccccc2)[C@H](C)C3)n1 (stereo partly drawn) [Compound 2] | 3.98 nM |  | 
Cc1csc(CNc2ncc3c(n2)CN(C(=O)N[C@H](CN(C)C)c2ccccc2)[C@H](C)C3)n1 [Compound 1] | 10.2 nM |  | 
[2H]C([2H])([2H])N(C[C@@H](NC(=O)N1Cc2nc(N[C@@H](C)c3nc(C4CC4)cs3)ncc2C[C@H]1C)c1ccccc1)C([2H])([2H])[2H] [Compound 9, (R)-2-(((S)-1-(4-Cyclopropylthiazol-2-yl)ethyl)amino)-N-((S)-2-(bis(methyl-d3)amino)-1-phenylethyl)-6-methyl-5,8-dihydropyrido[3,4-d]pyrimidine-7(6H)-carboxamide] | < 1.5 nM | significantly better than that of the disclosed compound Janssen-01 | 
C[C@@H]1Cc2cnc(NCc3ccn(C)n3)nc2CN1C(=O)[C@H]1CCN(C)C[C@@H]1c1ccccc1 [Janssen-01, reference compound] | 22.2 nM |  | 
[2H]C([2H])([2H])N(C[C@@H](NC(=O)N1Cc2nc(N[C@H](C)c3nc(C4CC4)cs3)ncc2C[C@H]1C)c1ccccc1)C([2H])([2H])[2H] [Compound 10, (R)-2-(((R)-1-(4-Cyclopropylthiazol-2-yl)ethyl)amino)-N-((S)-2-(bis(methyl-d3)amino)-1-phenylethyl)-6-methyl-5,8-dihydropyrido[3,4-d]pyrimidine-7(6H)-carboxamide] | 19.3 nM |  | 
C[C@H](Nc1ncc2c(n1)CN(C(=O)N[C@H](CN(C)C)c1ccccc1)[C@H](C)C2)c1nc(C2CC2)cs1 [Compound 4, (R)-2-(((S)-1-(4-Cyclopropylthiazol-2-yl)ethyl)amino)-N-((S)-2-(dimethylamino)-1-phenylethyl)-6-methyl-5,8-dihydropyrido[3,4-d]pyrimidine-7(6H)-carboxamide] | < 1.5 nM | significantly better than that of the disclosed compound Janssen-01 | IC50 (CDK7/Cyclin H/MAT1): 0.55 nM; IC50 (CDK1/CyclinB): > 1000 nM; IC50 (CDK6/CyclinD3): > 1000 nM; IC50 (CDK9/Cyclin T1): > 1000 nM; IC50 (CDK4/CyclinD1): > 1000 nM; IC50 (CDK2/CyclinE1): 571 nM
[2H]C([2H])([2H])N(C[C@@H](NC(=O)N1Cc2nc(NCc3nc(C)cs3)ncc2C[C@H]1C)c1ccccc1)C([2H])([2H])[2H] [Compound 7] | 11.2 nM |  | 
C[C@@H]1Cc2cnc(N[C@H](C)c3nc(C4CC4)cs3)nc2CN1C(=O)N[C@H](CN(C)C)c1ccccc1 [Compound 5, (R)-2-(((R)-1-(4-Cyclopropylthiazol-2-yl)ethyl)amino)-N-((S)-2-(dimethylamino)-1-phenylethyl)-6-methyl-5,8-dihydropyrido[3,4-d]pyrimidine-7(6H)-carboxamide] | 17.5 nM |  | 
C[C@@H]1Cc2cnc(NCc3nc(C4CC4)cs3)nc2CN1C(=O)N[C@H](CN(C)C)c1ccccc1 [Compound 6, (R)-2-(((4-Cyclopropylthiazol-2-yl)methyl)amino)-N-((S)-2-(dimethylamino)-1-phenylethyl)-6-methyl-5,8-dihydropyrido[3,4-d]pyrimidine-7(6H)-carboxamide] | 10.7 nM |  | 
[2H]C([2H])([2H])N(C[C@@H](NC(=O)N1Cc2nc(NCc3nc(C4CC4)cs3)ncc2C[C@H]1C)c1ccccc1)C([2H])([2H])[2H] [Compound 8, (R)-2-(((4-Cyclopropylthiazol-2-yl)methyl)amino)-N-((S)-2-(bis(methyl-d3)amino)-1-phenylethyl)-6-methyl-5,8-dihydropyrido[3,4-d]pyrimidine-7(6H)-carboxamide] | 9.89 nM |  | 

From patent publication EP4800014A1 (Tuojie Biotech (Shanghai) Co., Ltd., priority 2023, dated 2025)
